Results published in ChEMBL document CHEMBL1201862, “PubChem BioAssay data set” (2004).
Calls of active or inactive are those of the source. For most assays here, no stated cut-off is given here; in the data, actives have a measured EC50 and inactives only a lower limit.

Columns and labels:
[1] = biological target: Luciferin 4-monooxygenase (Photinus pyralis, UniProt P08659); assay: Counter Screen for Luciferase-based Assay Positives. [Related pubchem assays: 620, 618, 411 ]
NS3 = NS3 (Hepatitis C virus, UniProt A3EZJ3); assay: PubChem AID 2173; design: species or system Hepacivirus hominis
HT-1080 = assay: cytotoxicity in HT1080 fibrosarcoma cells, cell-based, fluorescence readout (AID 620); format: functional; details: Homo sapiens
[2] = Luminescence Cell-Based Dose Response HTS to Identify Inhibitors of 5'UTR Stem-Loop Driven Prion Protein mRNA Translation in H4 Neuroglioblastoma Cells. [Related pubchem assays: 1827 (Project Summary), 1813 (Primary HTS)]; format: functional
[3] = inhibitors of SNCA 5'UTR-driven reporter translation, confirmation, H4 neuroglioma cells, luminescence (AID 1988); format: functional, cell-based
Estrogen receptor = Estrogen receptor (Homo sapiens, UniProt P03372);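 further: potency for inhibiting coactivator peptide recruitment to the receptor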
Estrogen receptor beta [4] = biological target: T1, Estrogen receptor beta (Homo sapiens, UniProt Q92731);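 further: recombinant ER-beta bound to coactivator SRC1 peptide in presence of estradiol agonist; inhibitors block coactivator peptide binding and lower the FRET signal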
Estrogen receptor beta [5] = biological target: T1, Estrogen receptor beta; assay: ERβ–SRC-3 coactivator interaction inhibitors, confirmation, orthogonal assay, biochemical, ELISA, streptavidin-HRP readout (AID 1060)
[6] = inhibitors of intracellular T. cruzi replication, confirmation, NIH3T3 host cells, beta-gal luminescence (AID 2044); format: functional, cell-based;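 further: intracellular parasites grown in NIH/3T3 mouse fibroblasts as host cells; luminescent beta-galactosidase reporter signal from transgenic T. cruzi replicating inside host cells; inhibitors lower the luminescence signal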
[7] = biological target: Protein-tyrosine kinase 2-beta (Homo sapiens, UniProt Q14289);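 further: potency of inhibitors of PYK2 kinase phosphorylation of poly-GT substrate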
[8] = cytotoxicity toward NIH3T3 fibroblasts, dose response, counter-screen, cell-based, ATP luminescence, mouse fibroblasts (AID 2010); format: functional;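 further: cells exposed to compound for about 90 hours before reading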
[9] = biological target: 26S proteasome non-ATPase regulatory subunit 14 (Homo sapiens, UniProt O00487); assay: inhibition of proteasome subunit RPN11 – biochemical, fluorescence polarization, uHTS hits, confirmation (AID 602368); format: functional
[10] = biological target: 72 kDa type IV collagenase (Homo sapiens, UniProt P08253); assay: Dose Response validation of uHTS RPN11 inhibitor hits using a MMP-2 Fluorescence assay.; format: functional
Prothrombin = Prothrombin (Bos taurus, UniProt P00735); assay: thrombin inhibition, dose response, biochemical, fluorescence polarization, uHTS hits (AID 602369); format: functional
[11] = Luminescence Cell-Based Dose Response to Identify Activators of 5'UTR Stem-Loop Driven Prion Protein mRNA Translation in H4-C Neuroglioblastoma Cells. [Related pubchem assays: 1829 (Project Summary), 1814 (Primary HTS)]; format: functional
[12] = Luminescence Cell-Based Dose Confirmation HTS to Identify Activators of 5'UTR Stem-Loop Driven Alpha-Synuclein mRNA Translation in H4 Neuroglioblastoma Cells. [Related pubchem assays: 1829 (Project Summary), 1814 (Primary HTS)]; format: functional
[13] = Luminescence Cell-Based Dose Response HTS to Identify Activators of Luciferase Translation or Activity in H4 […] Cells. [Related pubchem assays: 1829 (Project Summary), 1814 (Primary HTS)]; format: functional
H4 = assay: Luminescence Cell-Based Dose Response HTS to Identify Activators of 5'UTR Stem-Loop Driven Prion Protein mRNA Translation in H4 Neuroglioblastoma Cells. [Related pubchem assays: 1829 (Project Summary), 1814 (Primary HTS)]; format: functional; details: Homo sapiens
[14] = Luminescence Cell-Based Dose Response to Identify Activators of Luciferase Translation or Activity in H4-C Neuroglioblastoma Cells. [Related pubchem assays: 1829 (Project Summary), 1814 (Primary HTS)]; format: functional
[15] = Luminescence Cell-Based Dose Confirmation to Identify Activators of 5'UTR Stem-Loop Driven Alpha-Synuclein mRNA Translation in H4 Neuroglioblastoma Cells. [Related pubchem assays: 1829 (Project Summary), 1814 (Primary HTS)]; format: functional
BJ [16] = assay: cytotoxicity toward BJ-TERT fibroblasts, dose response, cell-based, RAS-independent, luminescence (AID 1933); format: functional; details: Homo sapiens
BJ [17] = assay: cells; format: functional, cell-based; details: Homo sapiens
[18] = microbe, parasite or virus in culture; format: functional; details: Mycobacterium tuberculosis
BJ [19] = assay: cytotoxicity toward BJ-TERT-LT-ST fibroblasts, dose response, cell-based, RAS-independent, luminescence (AID 1935); format: functional; details: Homo sapiens;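 further: BJ fibroblasts immortalized with TERT plus LT and ST oncogenes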
[20] = cytotoxicity toward DRD oncogenic fibroblasts, dose response, cell-based, non-viral oncogenic, luminescence (AID 1934); format: functional; details: Homo sapiens
[21] = THP-1 cell cytotoxicity, dose response, cytotoxicity control for non-replicating M. tuberculosis project (AID 489025); format: functional
[22] = HepG2 cell cytotoxicity, dose response, cytotoxicity control for non-replicating M. tuberculosis project (AID 489018); format: functional; details: Mycobacterium tuberculosis
[23] = Vero E6 cell cytotoxicity, dose response, cytotoxicity control for non-replicating M. tuberculosis project, secondary assay (AID 492998); format: functional, VeroE6; details: Vero C1008
[24] = biological target: T2, Microphthalmia-associated transcription factor (Homo sapiens, UniProt O75030); assay: TRPM1 promoter luciferase signal decrease, dose response, MITF inhibitor project, cell-based, SK-MEL-5, cherry-picked, set 3 (AID 493073); format: functional
T2 sequence (O75030 whole entry): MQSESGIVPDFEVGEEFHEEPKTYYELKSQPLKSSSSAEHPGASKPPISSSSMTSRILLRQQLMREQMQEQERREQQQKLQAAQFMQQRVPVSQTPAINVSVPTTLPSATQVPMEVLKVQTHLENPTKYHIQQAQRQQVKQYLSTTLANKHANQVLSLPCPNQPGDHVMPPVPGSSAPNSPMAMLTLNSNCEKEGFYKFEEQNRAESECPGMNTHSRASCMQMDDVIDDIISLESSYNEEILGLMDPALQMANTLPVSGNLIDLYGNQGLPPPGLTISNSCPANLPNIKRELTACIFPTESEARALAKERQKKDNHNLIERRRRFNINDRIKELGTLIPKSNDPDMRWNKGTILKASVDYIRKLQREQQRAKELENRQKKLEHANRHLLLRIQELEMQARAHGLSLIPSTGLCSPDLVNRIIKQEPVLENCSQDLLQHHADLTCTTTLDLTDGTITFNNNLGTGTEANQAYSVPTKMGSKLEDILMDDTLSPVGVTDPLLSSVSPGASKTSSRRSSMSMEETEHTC

INS1 = assay: beta cell apoptosis inhibitors, cytokine rescue, dose response, luminescence, retest (AID 449756); format: functional, cell-based; details: Rattus norvegicus;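 further: cell death triggered by IL-1 beta plus TNF-alpha plus IFN-gamma mixture; protective hits raise ATP signal compared with cytokine alone wells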

T1 sequence (Q92731 whole entry): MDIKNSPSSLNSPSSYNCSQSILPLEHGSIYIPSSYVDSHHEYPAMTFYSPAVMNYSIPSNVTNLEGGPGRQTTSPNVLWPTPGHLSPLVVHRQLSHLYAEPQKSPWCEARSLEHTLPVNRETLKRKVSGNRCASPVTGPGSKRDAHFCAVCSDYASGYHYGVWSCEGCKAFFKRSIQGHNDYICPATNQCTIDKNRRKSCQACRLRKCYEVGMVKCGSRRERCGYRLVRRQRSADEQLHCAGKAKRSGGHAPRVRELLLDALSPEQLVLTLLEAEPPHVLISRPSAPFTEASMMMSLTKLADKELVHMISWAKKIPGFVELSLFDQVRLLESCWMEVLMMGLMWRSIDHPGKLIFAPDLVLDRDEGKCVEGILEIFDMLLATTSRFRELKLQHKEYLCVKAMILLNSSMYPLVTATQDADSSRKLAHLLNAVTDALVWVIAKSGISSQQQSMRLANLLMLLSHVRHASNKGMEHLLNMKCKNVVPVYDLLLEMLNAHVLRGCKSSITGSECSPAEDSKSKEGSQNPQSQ
Protein-tyrosine kinase 2-beta, sequence (Q14289 whole entry): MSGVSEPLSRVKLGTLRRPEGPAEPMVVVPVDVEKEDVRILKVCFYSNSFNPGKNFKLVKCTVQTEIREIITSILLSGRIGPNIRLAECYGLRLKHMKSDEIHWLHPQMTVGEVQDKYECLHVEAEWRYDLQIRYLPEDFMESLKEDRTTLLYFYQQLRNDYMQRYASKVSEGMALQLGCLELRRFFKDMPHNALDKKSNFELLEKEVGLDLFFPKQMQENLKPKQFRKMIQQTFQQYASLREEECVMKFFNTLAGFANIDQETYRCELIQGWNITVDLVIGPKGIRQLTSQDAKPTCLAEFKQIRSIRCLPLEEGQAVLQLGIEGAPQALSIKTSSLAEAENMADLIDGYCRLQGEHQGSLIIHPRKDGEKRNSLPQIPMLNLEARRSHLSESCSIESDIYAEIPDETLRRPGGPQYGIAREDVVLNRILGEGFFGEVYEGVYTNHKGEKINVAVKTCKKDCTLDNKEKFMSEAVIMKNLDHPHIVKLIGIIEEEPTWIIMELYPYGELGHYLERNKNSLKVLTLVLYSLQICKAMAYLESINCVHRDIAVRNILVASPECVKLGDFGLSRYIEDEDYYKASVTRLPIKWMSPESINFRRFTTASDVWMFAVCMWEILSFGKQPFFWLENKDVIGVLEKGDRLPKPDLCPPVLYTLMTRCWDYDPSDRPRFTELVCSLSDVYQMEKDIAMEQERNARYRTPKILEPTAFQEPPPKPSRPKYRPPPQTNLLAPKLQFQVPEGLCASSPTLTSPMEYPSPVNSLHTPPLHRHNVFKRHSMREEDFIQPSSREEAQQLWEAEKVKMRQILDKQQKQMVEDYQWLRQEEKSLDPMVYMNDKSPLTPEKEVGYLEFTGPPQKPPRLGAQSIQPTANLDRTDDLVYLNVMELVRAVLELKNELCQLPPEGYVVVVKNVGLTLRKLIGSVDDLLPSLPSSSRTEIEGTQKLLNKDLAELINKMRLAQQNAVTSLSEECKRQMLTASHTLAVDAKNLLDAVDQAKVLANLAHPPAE
Luciferin 4-monooxygenase, sequence (P08659 whole entry): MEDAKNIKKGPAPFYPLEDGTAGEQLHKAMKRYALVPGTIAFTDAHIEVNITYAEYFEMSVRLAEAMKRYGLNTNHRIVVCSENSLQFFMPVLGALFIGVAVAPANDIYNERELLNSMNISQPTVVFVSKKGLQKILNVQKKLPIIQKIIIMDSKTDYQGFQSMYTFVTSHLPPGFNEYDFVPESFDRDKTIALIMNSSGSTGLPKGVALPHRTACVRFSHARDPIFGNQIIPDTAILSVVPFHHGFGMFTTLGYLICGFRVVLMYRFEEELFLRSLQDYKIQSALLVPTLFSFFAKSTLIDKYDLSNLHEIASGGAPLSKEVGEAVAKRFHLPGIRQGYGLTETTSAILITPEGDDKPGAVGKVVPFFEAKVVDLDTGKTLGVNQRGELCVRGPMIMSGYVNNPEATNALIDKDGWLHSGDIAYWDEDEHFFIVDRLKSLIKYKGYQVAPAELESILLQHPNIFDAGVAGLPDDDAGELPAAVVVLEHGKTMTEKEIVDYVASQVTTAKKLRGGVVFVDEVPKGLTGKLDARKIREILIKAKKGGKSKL
72 kDa type IV collagenase, sequence (P08253 whole entry): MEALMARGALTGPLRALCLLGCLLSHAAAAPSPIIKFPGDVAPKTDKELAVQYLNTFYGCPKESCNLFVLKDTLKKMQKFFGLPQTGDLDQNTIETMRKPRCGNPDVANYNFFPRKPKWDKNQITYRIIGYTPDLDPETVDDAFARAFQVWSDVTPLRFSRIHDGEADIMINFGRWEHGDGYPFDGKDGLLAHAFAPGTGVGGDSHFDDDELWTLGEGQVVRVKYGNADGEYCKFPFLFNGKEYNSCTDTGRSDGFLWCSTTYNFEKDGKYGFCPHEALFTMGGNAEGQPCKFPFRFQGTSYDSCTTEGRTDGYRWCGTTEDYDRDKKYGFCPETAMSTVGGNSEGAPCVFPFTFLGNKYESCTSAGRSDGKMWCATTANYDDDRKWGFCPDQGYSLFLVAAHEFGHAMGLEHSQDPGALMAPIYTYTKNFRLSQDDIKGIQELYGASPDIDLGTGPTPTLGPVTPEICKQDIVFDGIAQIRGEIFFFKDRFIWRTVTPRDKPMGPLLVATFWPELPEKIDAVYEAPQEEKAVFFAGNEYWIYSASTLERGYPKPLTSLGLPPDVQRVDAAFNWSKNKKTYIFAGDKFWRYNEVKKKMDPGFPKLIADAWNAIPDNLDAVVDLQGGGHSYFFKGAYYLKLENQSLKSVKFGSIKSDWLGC
26S proteasome non-ATPase regulatory subunit 14, sequence (O00487 whole entry): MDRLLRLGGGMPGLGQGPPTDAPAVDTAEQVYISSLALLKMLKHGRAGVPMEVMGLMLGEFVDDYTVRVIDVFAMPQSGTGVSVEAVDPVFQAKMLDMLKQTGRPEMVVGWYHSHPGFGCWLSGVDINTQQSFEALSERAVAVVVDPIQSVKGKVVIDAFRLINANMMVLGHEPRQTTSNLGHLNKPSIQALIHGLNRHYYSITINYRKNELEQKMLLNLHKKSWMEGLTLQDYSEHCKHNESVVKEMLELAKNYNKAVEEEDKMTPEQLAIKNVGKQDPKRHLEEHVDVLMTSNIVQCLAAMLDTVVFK
Estrogen receptor, sequence (P03372 whole entry): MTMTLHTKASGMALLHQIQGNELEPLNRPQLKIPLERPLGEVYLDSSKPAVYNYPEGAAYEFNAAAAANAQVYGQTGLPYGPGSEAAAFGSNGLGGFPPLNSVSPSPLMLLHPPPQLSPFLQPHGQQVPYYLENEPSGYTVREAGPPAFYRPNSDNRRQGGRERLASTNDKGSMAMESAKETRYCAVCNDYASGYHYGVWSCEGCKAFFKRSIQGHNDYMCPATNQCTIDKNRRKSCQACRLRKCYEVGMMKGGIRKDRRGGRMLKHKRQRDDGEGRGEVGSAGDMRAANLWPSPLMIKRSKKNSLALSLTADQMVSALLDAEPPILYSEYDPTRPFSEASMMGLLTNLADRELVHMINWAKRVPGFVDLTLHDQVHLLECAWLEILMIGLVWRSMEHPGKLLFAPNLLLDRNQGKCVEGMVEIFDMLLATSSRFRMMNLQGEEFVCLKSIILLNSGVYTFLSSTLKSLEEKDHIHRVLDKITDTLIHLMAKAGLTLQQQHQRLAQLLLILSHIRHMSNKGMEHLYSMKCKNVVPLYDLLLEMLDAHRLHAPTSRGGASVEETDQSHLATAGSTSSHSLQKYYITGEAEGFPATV
NS3, sequence (A3EZJ3 whole entry): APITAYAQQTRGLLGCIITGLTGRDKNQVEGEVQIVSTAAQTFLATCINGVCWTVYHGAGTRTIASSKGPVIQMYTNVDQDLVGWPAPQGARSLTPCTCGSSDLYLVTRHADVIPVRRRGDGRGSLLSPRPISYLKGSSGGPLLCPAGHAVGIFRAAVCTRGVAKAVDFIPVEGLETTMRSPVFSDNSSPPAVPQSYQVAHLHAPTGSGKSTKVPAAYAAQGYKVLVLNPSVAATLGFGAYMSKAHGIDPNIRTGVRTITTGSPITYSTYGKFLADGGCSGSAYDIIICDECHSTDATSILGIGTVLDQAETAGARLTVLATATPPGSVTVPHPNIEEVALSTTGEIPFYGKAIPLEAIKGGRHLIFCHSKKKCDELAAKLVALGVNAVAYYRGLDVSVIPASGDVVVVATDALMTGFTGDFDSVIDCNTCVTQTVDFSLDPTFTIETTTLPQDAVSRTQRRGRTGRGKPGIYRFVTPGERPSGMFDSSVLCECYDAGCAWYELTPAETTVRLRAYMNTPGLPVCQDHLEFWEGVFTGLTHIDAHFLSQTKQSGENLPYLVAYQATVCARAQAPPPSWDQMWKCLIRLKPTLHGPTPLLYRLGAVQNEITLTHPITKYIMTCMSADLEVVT

Compound: CCc1cc2c(=O)n(Cc3ccco3)c(SCc3c(C)noc3C)nc2s1
- EC50 [1]: 0.34 µM (active)
- IC50 (NS3): 25.6 µM (not active)
- EC50 (HT-1080): 15.3 µM (active)

Compound: CCCNC(=O)c1ccc(-c2nc3ccccc3s2)s1
- EC50 [2]: 10.7 µM (inconclusive)
- EC50 [3]: 7.23 µM (active)
- IC50 (Estrogen receptor): 30.3 µM (not active)
- IC50 (Estrogen receptor beta [4]): > 50 µM (not active)
- IC50 (Estrogen receptor beta [5]): 102 µM (not active)

Compound: COC(=O)c1[nH]c2ccc(C)cc2c1NC(=O)CN1CCCc2ccccc21
- EC50 [6]: < 0.1 µM (active)
- IC50 (Estrogen receptor beta [4]): < 1.56 µM (active)
- IC50 (Estrogen receptor beta [5]): 1.03 µM (not active)
- IC50 [7]: 15.2 µM (not active)
- EC50 [8]: > 60 µM (not active)
- IC50 [9]: 16.7 µM (active)
- IC50 [10]: > 100 µM (inactive)
- IC50 (Prothrombin): > 100 µM (inactive)
- EC50 (cells): 0.639 µM (active)

Compound: Cc1nc2ccc(NC(=O)c3ccc(Cl)s3)cc2s1
- EC50 [11]: 0.443 µM (active)
- EC50 [12]: < 0.1 µM (active)
- EC50 [13]: < 0.1 µM (active)
- EC50 (H4): 12.5 µM (active)
- EC50 [14]: 0.491 µM (active)
- EC50 [15]: 0.363 µM (active)

Compound: COc1cc(C2Nc3ccc4ncccc4c3C3=C2C(=O)CCC3)cc(OC)c1O (stereo not drawn)
- IC50 [7]: 12.7 µM (not active)

Compound: CCOc1ccc(OCc2ccc(C(=O)N/N=C(\C)c3ccccn3)cc2)cc1
- EC50 (BJ [16]): 0.75 µM (active)
- EC50 (BJ [17]): 1.25 µM (active)
- CC50 [18]: 4.15 µM (active)
- EC50 (BJ [19]): 3.92 µM (inconclusive)
- EC50 [20]: 25.4 µM (inconclusive)
- CC50 [21]: 1.37 µM (active)
- CC50 [22]: 5.83 µM (active)
- CC50 [23]: 3.37 µM (active)
- AC50 [24]: 3.64 µM (active)
- AC50 (INS1): 0.712 µM (active)

Compound: COc1ccc(C2C(=O)c3ccccc3C2=O)c(OC)c1
- EC50 [11]: > 12 µM (not active)
- EC50 [13]: < 0.1 µM (inconclusive)
- EC50 [14]: > 12 µM (not active)
- EC50 [15]: 0.104 µM (inconclusive)
